From US7413747B2, “Transdermal therapeutic system for treating Parkinsonism” (LTS Lohmann Therapie-Systeme AG, priority 1998, dated 2008)

Experiments:
[1] = Solubility of the active substance in polyacrylate adhesives; format: physicochemical; settings: polyacrylate adhesive matrix; ambient temperature
From the text: (§1) The transdermal therapeutic system according to this invention, of the kind mentioned at the beginning and developed in accordance with the above, is essentially characterized by a matrix on the basis of an acrylate-based or silicone-based non-aqueous polymer adhesive system having a solubility for the free D2-agonist base (−)-5,6,7,8-tetrahydro-6-[propyl-[2-(2-thienyl)ethyl]amino]-1-naphthalenol of >5% (w/w), which matrix is substantially free of inorganic silicate particulates. The solubility is determined at ambient temperature.
In systems wherein the active substance is only partially dissolved the concentration of the dissolved active substance is equal to the saturation concentration and thus has the maximum thermodynamic activity under these conditions. In general, it is, above all, the kind and quantity of the free functional groups in the adhesive which are important for the dissolving capacity of the polyacrylate adhesives. […] Such a system must therefore contain the active substance in a concentration of at least 10% (w/w) in order to come sufficiently near to the maximal thermodynamic activity. For the hydrochloride of (−)-5,6,7,8-tetrahydro-6-[propyl-[2-(2-thienyl)ethyl]amino]-1-naphthalenol the solubility in polyacrylates having 5-10% (w/w) is much lower, so that in such systems the active substance is preferably only partially dissolved.

[2] = Solubility (saturation capacity) of the active substance in silicone adhesives; format: physicochemical; settings: for saturation capacity in silicone adhesives: silicone adhesive without solubility-increasing additive
From the text: as §1
This is sufficient to dissolve 10 mg active substance in a 20 cm^2 large patch having a coat weight of the matrix of 50 g/m^2. Since with transdermal patch systems one must always assume that only about 50% of the active substance employed will be available during the period of application, given a daily dose in the range of 1-10 mg of the active substance a plaster size of between 2 and 40 cm^2 can be expected to be sufficient to achieve therapeutic plasma levels.

[3] = Permeation studies utilizing Franz diffusion cells and human epidermis; format: in vitro ADME; settings: skin, due to hydrophilic properties
From the text: The finished plasters were used in permeation studies utilizing Franz diffusion cells and human epidermis. It will be seen that all plasters are capable of systemically providing a sufficient amount of active substance through the skin. […] It will also be seen that the silicone adhesive-based plasters, although having a considerably lower active substance content, deliver approximately the same quantity of active substance via the skin as the systems based on polyacrylate adhesives.

SMILES: CCCN(CCc1cccs1)C1CCc2c(O)cccc2C1 (single isomer, unassigned; (-)) [(−)-5,6,7,8-tetrahydro-6-[propyl-[2-(2-thienyl)ethyl]amino]-1-naphthalenol]
- solubility in polyacrylate adhesives [1]: 15-35 % (w/w)
- solubility in amine-resistant silicone adhesive ([2]; about 1.5-5% (w/w) of polyvinylpyrrolidone in the adhesive): 10-15 % (w/w)
- dissolving capacity for the free base in silicone adhesive matrices ([2]; silicone adhesive admixed with a substance having increased solubility for the active substance (e.g. polyvinylpyrrolidone)): up to 40 % (w/w)
- saturation capacity in silicone adhesives [2]: about 5 % (w/w)

SMILES: CCCN(CCc1cccs1)C1CCc2c(O)cccc2C1.Cl (single isomer, unassigned; (-)) [(−)-5,6,7,8-tetrahydro-6-[propyl-[2-(2-thienyl)ethyl]amino]-1-naphthalenol hydrochloride]
- solubility in polyacrylate adhesives [1]: 5-10 % (w/w)
- saturation capacity in silicone adhesives [2]: practically insoluble
- passing the barrier of the stratum corneum [3]: only poorly
